Test [1] has as its system FRTL-5 cells. Briefly: Effect of 2-aminopurine (PKR inhibitor) in dsRNA-transfected FRTL-5 cells. The format is cell-based, rat. Particulars: FRTL-5, 10 mM 2-AP. The protocol:
FIG. 2. […] After total RNA purification, 20 μg of total RNA were analyzed with indicated radiolabeled cDNA probes. […] Cells were transfected Lipofectamine 2000 alone (L) or with the indicated amount of Poly (I:C) (RNA) or endotoxin-free E. coli DNA. After 12 and 24 hours, 20 μg of total RNA was analyzed with the indicated radiolabeled cDNA probes. […] In (C), the effect of 2-aminopurine (a PKR inhibitor) on transfected dsRNA-induced TLR3 mRNA levels was measured. Again cells were transfected with Lipofectamine 2000 alone or Lipofectamine with the indicated amount of Poly (I:C) or endotoxin-free E. coli DNA in the presence or absence of 10 mM 2-aminopurine. After the indicated incubation time, cells were harvested and 20 μg of total RNA was analyzed with the indicated radiolabeled cDNA probes. […] Data are representative of multiple experiments. In sum, dsRNA transfection is needed to increase gene expression of signals implicated in autoimmune-inflammatory diseases such as MHC genes and high levels of Type I interferons, not simply activation of TLR by incubating thyrocytes with dsRNA by dsRNA binding to TLR3 receptors. Moreover, despite increased PKR, the critical signal involved in TLR3/Type I IFN signaling by dsRNA transfection is not PKR mediated. […]

The test system of test [2] is C57BL/6J mice. Briefly: LPS-induced endotoxic shock in C57BL/6J mice: survival and signs of shock. The settings on record: for Signs of shock at 12 hours, % of Animals: LPS-challenged mice. Format: in vivo, mouse.
For test [3], the system named is TLR3, MHC Class I, PKR, IP-10 mRNA in FRTL-5 cells. Particulars: FRTL-5, 100 U/ml IFN.
Test [4] concerns ERK1/2 MAPK, ELK1. The test can be described thus: ERK1/2 MAPK phosphorylation and Elk1 transactivation in FRTL-5 thyrocytes. Format: cell-based, rat. The settings on record: FRTL-5, pCMV-BD-Elk 1 and pFR-luc, 6 hrs. As for the experimental part: Poly (I:C) (the dsRNA ligand commonly used as a test compound) activates the TLR3 mediated NF-κ β/Map kinase signal pathway in FRTL-5 thyrocytes. FRTL-5 cells were transiently transfected with 100 ng of luciferase reporter pNF-κB Luc and 2 ng of internal control phRL-Tk. After 36 h, cells were incubated with 100 μg/ml poly (I:C) or endotoxin-free E. coli DNA for 6 h. Measurements were made with the Dual Luciferase Assay System (Promega). Poly (I:C) increased TLR3 mediated NF-κB mediated luciferase activity (gene expression) 6 fold; dsDNA had no effect. Further support came from electrophoretic mobility shift analyses (EMSA). When FRTL-5 thyrocytes were incubated with 100 μg/ml poly (I:C), IL-1β, TNF-α or TPA, cells lysed after 1 h, and nuclear translocation of NF-κB measured. The poly (I:C) induced p50/p65 complex formation as measured by the presence of a specific new protein/DNA complex and its inhibition by anti-p50 and p65 antibodies, but not by anti-p52, c-rel and Rel B antibodies; the complex was also supershifted by anti-p50. […] Additionally, when FRTL-5 cells were co-transfected with pCMV-BD-Elk 1 and pFR-luc, then incubated with 100 μg/ml poly (I:C) or IL-1β for 6 hrs, ELK1 transactivation was increased 2-fold by both Poly (I:C) and IL-1β when measured with the Dual Luciferase Assay System (Promega). […]

In test [5] the test system is NF-κB. Briefly: NF-κB Luc reporter gene in FRTL-5 thyrocytes. Format: cell-based, rat. Particulars: FRTL-5, pNF-κB Luc, 100 μg/ml, 6 h. The protocol:
Poly (I:C) (the dsRNA ligand commonly used as a test compound) activates the TLR3 mediated NF-κ β/Map kinase signal pathway in FRTL-5 thyrocytes. FRTL-5 cells were transiently transfected with 100 ng of luciferase reporter pNF-κB Luc and 2 ng of internal control phRL-Tk. After 36 h, cells were incubated with 100 μg/ml poly (I:C) or endotoxin-free E. coli DNA for 6 h. Measurements were made with the Dual Luciferase Assay System (Promega). Poly (I:C) increased TLR3 mediated NF-κB mediated luciferase activity (gene expression) 6 fold; dsDNA had no effect. Further support came from electrophoretic mobility shift analyses (EMSA). When FRTL-5 thyrocytes were incubated with 100 μg/ml poly (I:C), IL-1β, TNF-α or TPA, cells lysed after 1 h, and nuclear translocation of NF-κB measured. The poly (I:C) induced p50/p65 complex formation as measured by the presence of a specific new protein/DNA complex and its inhibition by anti-p50 and p65 antibodies, but not by anti-p52, c-rel and Rel B antibodies; the complex was also supershifted by anti-p50. […] Additionally, when FRTL-5 cells were co-transfected with pCMV-BD-Elk 1 and pFR-luc, then incubated with 100 μg/ml poly (I:C) or IL-1β for 6 hrs, ELK1 transactivation was increased 2-fold by both Poly (I:C) and IL-1β when measured with the Dual Luciferase Assay System (Promega). NF-κB/MAP Kinase signals evoked by TLR3 binding dsRNA are only one portion of TLR3 functional expression.
Cells were co-transfected with ISRE-Luc and pRLTk-Int and then treated without (none) or with Poly I:C (100 μg/ml), LPS (100 ng/ml), IL-1β (10 ng/ml) TNF-α (25 ng/ml), IFN-β (100 U/ml) or IFN-γ (1000 U/ml) in the presence of DMSO (−) or C10 for 6 hours. Data were obtained using the Dual Luciferase Assay system. The effect on the ISRE element is not duplicated by an NF-κB reporter plasmid despite the similarity of the two elements: ([…])5 (SEQ ID NO:3) vs. ([…])5 (SEQ ID NO:4), respectively. Data are representative of multiple experiments.
Plasmids for Reporter Gene Assays. Human IRF-3 was amplified from human cDNA and cloned into pCR 2.1 by the TOPO/TA (Invitrogen, Carlsbad, Calif.) cloning method, and then sequenced. IRF-3 was then excised by EcoRI digestion and subcloned into pCMV-BD (Stratagene, La Jolla, Calif.) for use in transactivation assays. To construct IFN-β-luc the human IFN-β promoter sequence was amplified from human genomic DNA (Clontech, Palo Alto, Calif.)) using Ex Taq™ Polymerase (Takara, Madison, Wis.). The PCR fragment contained human IFN-β promoter sequence from −125 to +34 relative to the transcription start site (+1) and incorporated KpnI and XhoI restriction sites at the 5′ and 3′ ends, respectively. The primers were as follows: hIFN-β (−125) KpnI (5′-[…]-3′) (SEQ ID NO:9) and hIFN-β (+34) XhoI (5′-[…]-3′). (SEQ ID NO: 10) The fragment was digested with KpnI and XhoI then ligated into a similarly digested pGL3 Basic (Promega, Madison, Wis.) vector. The human MyD88 wild and dominant negative expression vectors were kindly donated by Dr. P. E. Auron. pFR-luc (5×Gal4 DNA binding domains and minimal TATA box), ISRE-Luc, NF-κB-luc and the Elk1 trans-Reporting System were purchased from Stratagene. pRL TK-Int was purchased from Promega.
Transient Expression Analysis. A DEAE procedure was used to transfect promoter-luciferase gene constructs and expression plasmids into FRTL-5 cells. Briefly, FRTL-5 cells were grown in 24-well plates to about 70% confluence, washed with 0.5 ml of serum-free culture medium (6H0 medium), then exposed to 125 μl of premade plasmid-DEAE mixture per well for 15 min at room temperature. The plasmid-DEAE mixture was prepared by incubating 100 ng of plasmid DNA, unless otherwise noted in individual experiments, with 3.125 μl of DEAE-Dextran (10 mg/ml) (Promega, Madison Wis.). FRTL-5 cells were incubated with this mixture for 2 hr at 37° C. in a CO2 incubator, before 2 ml of 6H5 medium was added. […]
(In general: In a reporter assay the amount or activity of a reporter protein is the signal.)

Setting [6] is: LPS 20 mg/kg i/p, drug i/p 30 min before LPS, 8 mice per group.
Setting [7] is: challenged with LPS first, treated after 12 hours when shock had appeared.

Like-named read-outs stand apart in the source and are kept apart here.

As to `Nc1ncc2[nH]cnc2n1` [Compound 2-AP, 2-aminopurine], in test [1], the “dsRNA-transfection-increased NF-κB p65/p50 complex formation (EMSA)” value is on record as “strongly inhibited” and the “dsRNA-transfection-induced increase in IFN-β mRNA levels” value was “did not inhibit”.
For `CNC[C@H](O)[C@@H](O)[C@H](O)[C@H](O)CO.Cc1c(Nc2ncccc2C(=O)O)cccc1C(F)(F)F` [flunixin of meglumine], in test [2] (setting [6]), the “Number of surviving mice, 1 week” value stood at 0; the “Number of surviving mice, 6 hrs” value was 8; the “Number of surviving mice, 12 hrs” value amounted to 8; the “Number of surviving mice, 18 hrs” value worked out at 4. For the same molecule, the “Number of surviving mice, 36 hrs” value in test [2] (setting [6]) is 0. In addition, in test [2], the “Signs of shock at 12 hours, % of Animals” value is 100 % of Animals. Further, in test [2] (setting [7]), the “Number of surviving mice, 1 week” value is on record as 0; the “Number of surviving mice, 18 hrs” value stood at 0; the “Number of surviving mice, 36 hrs” value is recorded as 0.
Regarding `C[C@]12C=CC(=O)C=C1CC[C@@H]1[C@@H]2[C@@H](O)C[C@@]2(C)[C@H]1CC[C@]2(O)C(=O)CO` [prednisolone], in test [2] (setting [6]), the “Number of surviving mice, 1 week” value stood at 0; the “Number of surviving mice, 6 hrs” value is 8; the “Number of surviving mice, 12 hrs” value is given as 8; the “Number of surviving mice, 18 hrs” value is on record as 3. In test [2] (setting [6]), the “Number of surviving mice, 36 hrs” value was determined as 0. The “Signs of shock at 12 hours, % of Animals” value in test [2] was 100 % of Animals. Besides, in test [2] (setting [7]), the “Number of surviving mice, 1 week” value came to 0; the “Number of surviving mice, 18 hrs” value is listed as 1; the “Number of surviving mice, 36 hrs” value is listed as 0.
Take “IFN-γ: a Type II IFN, from Biosource International”: in test [3] (1 hr), the “GAPDH mRNA, % of Control at 0 Time (±15%)” value (from here on “GAPDH mRNA, % of Control”) is on record as 100 % of Control at 0 Time; the “IP-10 mRNA, % of Control at 0 Time (±15%)” value (“IP-10 mRNA, % of Control” for short) is recorded as 100 % of Control at 0 Time; the “MHC Class I mRNA, % of Control at 0 Time (±15%)” value (“MHC Class I mRNA, % of Control” for short) is recorded as 100 % of Control at 0 Time; the “PKR mRNA, % of Control at 0 Time (±15%)” value is 100 % of Control at 0 Time. Moreover, in test [3] (1 hr), the “TLR3 mRNA, % of Control at 0 Time (±15%)” value is reported as 100 % of Control at 0 Time. Moreover, in test [3] (3 hr), the “GAPDH mRNA, % of Control” value is 100 % of Control at 0 Time; the “IP-10 mRNA, % of Control” value was 100 % of Control at 0 Time; the “MHC Class I mRNA, % of Control” value is 100 % of Control at 0 Time; the “PKR mRNA, % of Control at 0 Time (±15%)” value is 100 % of Control at 0 Time. The “TLR3 mRNA, % of Control at 0 Time (±15%)” value in test [3] (3 hr) is given as 100 % of Control at 0 Time. Also, in test [3] (6 hr), the “GAPDH mRNA, % of Control” value was 100 % of Control at 0 Time; the “IP-10 mRNA, % of Control” value is recorded as 100 % of Control at 0 Time; the “MHC Class I mRNA, % of Control” value was 100 % of Control at 0 Time; the “PKR mRNA, % of Control at 0 Time (±15%)” value was 100 % of Control at 0 Time. The “TLR3 mRNA, % of Control at 0 Time (±15%)” value in test [3] (6 hr) is 100 % of Control at 0 Time. In test [3] (12 hr), the “GAPDH mRNA, % of Control” value is 100 % of Control at 0 Time; the “IP-10 mRNA, % of Control” value is recorded as 100 % of Control at 0 Time; the “MHC Class I mRNA, % of Control” value is 100 % of Control at 0 Time; the “PKR mRNA, % of Control at 0 Time (±15%)” value is on record as 100 % of Control at 0 Time. Moreover, the “TLR3 mRNA, % of Control at 0 Time (±15%)” value in test [3] (12 hr) is listed as 100 % of Control at 0 Time.
“IL-1β: cytokine used as positive control”: the “increase of ELK1 transactivation” value in test [4] stood at 2 fold.
For Poly (I:C) [reference compound], in test [5], the “increase of NF-κB mediated luciferase activity” value turned out to be 6 fold. Besides, the “increase of ELK1 transactivation” value in test [4] was 2 fold.

For the origin of these results see US9326972B2, “Use of phenylmethimazoles, methimazole derivatives, and tautomeric cyclic thiones for the treatment of autoimmune/inflammatory diseases associated with toll-like receptor overexpression” (Ohio University, priority 2004, dated 2016).
